In US10604473B2, “Lipids that increase insulin sensitivity and methods of using the same” (Beth Israel Deaconess Medical Center, Inc., priority 2013, dated 2020):

Assays:
[1] = FAHFA biosynthesis (FA-CoA:HFA acyltransferase) assay in tissue lysates; format: biochemical; conditions: 9-HSA and oleoyl-CoA 10 μM, increasing doses of inhibitor
Method: After first establishing that FA-CoA:HFA acyltransferase activity was membrane-localized in liver (not shown), membrane fractions from liver or WAT tissue lysate were isolated by ultracentrifugation, then resuspended the pellets in PBS buffer and diluted to 1 mg/ml protein concentration. […] Formation of 9-OAHSA was measured by MS/MS, with which the appearance of the parent ion m/z 563 was monitored.
In light of the above results acyltransferase families that have been reported to have a membrane-bound localization and to have the ability to conjugate FA-CoA to a hydrophobic alcohol were targeted. Two of the enzymes, DGAT1 and ACAT, had selective inhibitors that were commercially available, A922500 [20] and CI976 [21], which were used to test their ability to reduce FAHFA production in the biosynthesis assay (inhibitors purchased from Tocris Bioscience).

3T3-L1 adipocytes = experiment: Glucose transport in 3T3-L1 adipocytes; format: cell-based; conditions: chronic treatment
Method: FIGS. 54A-D show glucose uptake regulation by PAHSAs and Glut4 translocation via GPR120. FIG. 54A is a bar graph showing insulin-stimulated glucose transport in 3T3-L1 adipocytes treated 9-PAHSA (20 μM) or vehicle (DMSO) control for 6 days. n=6 per group, *p<0.05 compared to vehicle by t-test. FIG. 54B is a bar graph showing insulin (10 nM)-stimulated glucose transport in 3T3-L1 adipocytes transfected with control siRNA or GPR120 siRNA and treated 5-PAHSA (10 μM), 9-PAHSA (10 μM) or vehicle (DMSO) control for 2 days. n=3 per group, *p<0.05 compared to DMSO+control siRNA or GPR120 siRNA alone, $p<0.05 compared to control siRNA or GPR120 siRNA+insulin and GPR120 siRNA+insulin+PAHSA by t-test. FIG. 54C is a panel showing Glut4 plasma membrane translocation in 3T3-L1 adipocytes transfected with control siRNA or GPR120 siRNA and treated with 9-PAHSA in the presence or absence of insulin. 6 separate experiments were carried out without RNAi and 3 experiments with RNAi; each experiment had greater than 50 cells per experimental condition. FIG. 54D is a bar graph showing quantification of Glut4 translocation in panel C. *p<0.05 compared to control siRNA+insulin and GPR120 siRNA+insulin+9-PAHSA by t-test. All data are presented as mean±s.e.m. See also FIG. 57.
For all cell culture experiments, FAHFAs were solubilized in DMSO at a concentration of 20 mM and further diluted in assay buffer or cell culture media to the working concentrations indicated for each assay. In all instances an equivalent volume of vehicle (DMSO) was added to control treatment groups.

[2] = FAHFA hydrolysis assay (9-PAHSA to 9-HSA), liver lysate
Method: To establish whether or not FAHFA can be enzymatically degraded, an LC-MS-based in vitro activity assay was developed to measure the hydrolysis of 9-PAHSA to 9-HSA. […] Liver lysate (1 mg/ml protein) was incubated with 100 μM 9-PAHSA at 37° C. for two hours. The reaction mixture was then extracted with one volume ethyl acetate, concentrated under nitrogen gas stream, and reconstituted in 1:1 chloroform:methanol for MS analysis.

[3] = tested on: carboxyl ester lipase (CEL); experiment: FAHFA hydrolysis assay, CEL-transfected HEK293T cell lysate; format: biochemical
Method: Plasmid expression clones for these enzymes were obtained, which were under the control of the cytomegalovirus promoter (from the Cravatt lab), with which we transfected HEK293T cells to assess the ability of these enzymes to hydrolyze 9-PAHSA. For the activity assays, cell lysates were diluted according to the relative expression of the three clones according to ABP intensities.
(§1) The experiment was repeated with either liver or pancreas membrane lysate.

[4] = FAHFA hydrolysis assay, pancreas membrane lysate; format: biochemical
Excerpt: as §1

STC-1 cells [5] = experiment: GLP-1 secretion from STC-1 enteroendocrine cells (ELISA); format: cell-based
Method: For the experiments summarized in FIG. 41 STC-1 cells were incubated with vehicle (DMSO), 9-PAHSA, 5-PAHSA or 9-OAHSA at the indicated concentrations or lineolic acid (100 uM) as a positive control. Media was harvested and GLP-1 was measured by ELISA.
For the experiments summarized in FIG. 42, the same protocol as described for FIG. 41 was used, except in this experiment a time course was performed. For both FIG. 41 and FIG. 42, for GLP-1 secretion STC1 cells were washed 3× with serum free culture media followed by stimulation with FAHFAs or vehicle at the indicated concentrations and timepoints. Levels of active GLP-1 were measured by ELISA.

STC-1 cells [6] = experiment: ERK phosphorylation in STC-1 cells (immunoblot); format: cell-based; conditions: 15 minutes stimulation
Method: For the experiments summarized in FIG. 40, STC-1 cells were incubated with 9-PAHSA, 5-PAHSA or 9-OAHSA at the indicated concentrations. Cells were harvested and lysed and proteins were separated by SDS PAGE and transferred onto nitrocellulose filters. The phosphorylation of ERK and the amount of total ERK was determined by immunoblotting with antibodies specific for total or phosphor-ERK. DMSO was the control. For ERK phosphorylation, cells were serum deprived overnight and stimulated with FAHFAs or vehicle as indicated for 15 minutes followed by lysis in RIPA buffer and analysis by SDS-PAGE

Question: For `O=C(Nc1ccccc1)Nc1ccc(-c2ccc(C(=O)[C@@H]3CCC[C@H]3C(=O)O)cc2)cc1` [A922500], which “9-OAHSA levels (FAHFA production)” value [1] is on record?
Answer: no change in 9-OAHSA levels

Question: With `CCCCCCCCC(O)CCCCCCCCC(=O)O` (stereo not drawn) [hydroxystearic acid] as the molecule, how does the insulin-stimulated glucose transport (3T3-L1 adipocytes) read?
Answer: impaired insulin-stimulated glucose transport

Question: Which results are given for `C[C@H](CCC(=O)NCCS(=O)(=O)O)[C@H]1CC[C@H]2[C@@H]3[C@H](O)C[C@@H]4C[C@H](O)CC[C@]4(C)[C@H]3C[C@H](O)[C@]12C` [NaTC, sodium taurocholate]?
Answer: bile-salt activation of FAHFA hydrolysis [2]: not enhanced; bile-salt activation of FAHFA hydrolysis [3]: enhanced; bile-salt activation of FAHFA hydrolysis [4]: markedly increased

Question: What does the source list for `CCCCCCCC/C=C\CCCCCCCC(=O)OC(CCCCCCCCC)CCCCCCCC(=O)O` (stereo not drawn) [9-OAHSA]?
Answer: GLP-1 secretion (STC-1 cells [5]): induce GLP-1 secretion; ERK phosphorylation (STC-1 cells [6]): induce ERK phosphorylation

Question: Which “9-OAHSA levels (FAHFA production)” value [1] does the source give for `CCCCCCCCCCC(C)(C)C(=O)Nc1c(OC)cc(OC)cc1OC` [CI976] here?
Answer: no change in 9-OAHSA levels

Question: With `CCCCCCCCCCCCCCCC(=O)O` [palmitic acid] as the molecule, how does the insulin-stimulated glucose transport (3T3-L1 adipocytes) read?
Answer: impaired insulin-stimulated glucose transport
